The values below come from US5834032A, “Compositions and methods for treating diabetes” (priority 1997, dated 1998).

Assay type in all cases: in vivo, rat
For assay [1], the system named is diabetic rats. Nature of the assay: Water consumption by diabetic rats during administration of chemicals in drinking water (Example 2). As to conditions: Table 8. From the text: (§1) Rats were first made diabetic by injection with streptozotocin, and then allowed to stabilize for a period of two weeks. […] After the two week period, the surviving diabetic rats were divided into seven groups and provided either with plain drinking water as a control, or drinking water containing one of six compositions to be tested for their effects on various parameters associated with the diabetic condition. Constituents included in these compositions, in varying combinations, were: zinc (20 mg/L); L-histidine (20 mg/L); arachidonic acid (100 mg/L); testosterone (100 mg/L); and C-Hispro (10 mg/L).
(§2) Diabetic rats receiving one of the six test compositions or control drinking water were monitored for blood glucose concentration, body weight and water consumption over a period of about one month. Values for these parameters were plotted on a graph, and a regression line drawn. […] Thus, if the blood glucose concentration increased substantially steadily over the course of the experiment, the slope of the regression line was reported along with the number of days duration during which the change was monitored.

Assay [2] has as its system diabetic rats. Nature of the assay: Optimizing the level of C-Hispro intake for improving diabetes (blood glucose). The settings on record: for Mean mg glucose/dL after Tmt / Mean mg glucose/dL before Tmt: 10 mg Zn/L in drinking water; for Changes of mg glucose/dL: 10 mg Zn/L, decrease. As to the method:
The results presented in Table 9 were used to determine the optimal concentration of C-Hispro useful for improving the symptoms associated with diabetes. Since rats consuming water containing C-Hispro ad libitum also consumed the lowest water volume as evidenced by the results in Table 8, the optimal concentration of C-Hispro for improving the symptoms of diabetes was determined by providing animals with water containing different concentrations of c-Hispro. The amounts of consumed were determined by measuring the amount of water consumed, dividing this value by the weight of the rat and multiplying the result by the c-Hispro concentration. The amount of C-Hispro intake for the most dramatic improvement of symptoms of diabetes was about 300 μg/kg/day, based on the results presented in Tables 9 and 10. […] Similar ranges of dosages also are expected to be useful for treating diabetic mammals, including humans.

Assay [3] relates to diabetic rats. Nature of the assay: Blood glucose in diabetic rats administered arachidonic acid and 0.5 mg/kg/day L-histidine (dose optimisation). The protocol:
In the experiment used to produce the results presented in Table 11, the concentration of AA was varied and the L-histidine concentration was held constant. Thus, a range of from 3-30 mg/kg/day of AA provided a therapeutic benefit, with a range of from 10-12 mg/kg/day of AA providing the greatest benefit.

The test system of assay [4] is diabetic rats. Nature of the assay: Blood glucose concentration changes (regression slope) during dietary feeding of defined chemical species (Example 2). The settings on record: Table 6.
Text: as §1, §2

Where [5] appears, read: C-Hispro intake 217 to 231 μg/kg, restricted water intake.
Where [6] appears, read: C-Hispro intake 281 to 290 μg/kg, unrestricted water intake.
Where [7] appears, read: C-Hispro intake 303 to 337 μg/kg, restricted water intake.
The mark [8] stands for this setting: C-Hispro intake 386 to 466 μg/kg, unrestricted water intake.
The mark [9] stands for this setting: C-Hispro intake 448 to 463 μg/kg, restricted water intake.
The mark [10] stands for this setting: C-Hispro intake 452 to 554 μg/kg, unrestricted water intake.
Setting [11] is: C-Hispro intake 554 to 597 μg/kg, restricted water intake.
The mark [12] stands for this setting: C-Hispro intake 569 to 680 μg/kg, unrestricted water intake.
The mark [13] stands for this setting: arachidonic acid 0 mg/kg/day, 0.5 mg/kg/day L-histidine.
Where [14] appears, read: arachidonic acid 2.02 to 2.39 mg/kg/day, plus 0.5 mg/kg/day L-histidine.
Setting [15] is: arachidonic acid 3.04 to 3.58 mg/kg/day, plus 0.5 mg/kg/day L-histidine.
[16] abbreviates: arachidonic acid 4.05 to 4.78 mg/kg/day, plus 0.5 mg/kg/day L-histidine.
The mark [17] stands for this setting: arachidonic acid 5.06 to 5.97 mg/kg/day, plus 0.5 mg/kg/day L-histidine.
Where [18] appears, read: arachidonic acid 10.12 to 11.95 mg/kg/day, plus 0.5 mg/kg/day L-histidine.
Setting [19] is: arachidonic acid 15.18 to 17.91 mg/kg/day, plus 0.5 mg/kg/day L-histidine.
[20] abbreviates: arachidonic acid 20.24 to 23.88 mg/kg/day, plus 0.5 mg/kg/day L-histidine.
The mark [21] stands for this setting: arachidonic acid 25.30 to 29.85 mg/kg/day, plus 0.5 mg/kg/day L-histidine.

Regarding `O=C1N[C@@H](Cc2cnc[nH]2)C(=O)N2CCC[C@@H]12` [C-Hispro, cyclo-Hispro], the “water consumption compared to the other groups” value in the assay with diabetic rats [1] is “lower than in the other groups tested”. For the same compound, the “Mean mg glucose/dL after Tmt” value in the assay with diabetic rats [2] (setting [5]) came to 213 ± 43 mg glucose/dL; with diabetic rats [2] (setting [6]) it was 258 ± 27 mg glucose/dL; in the assay on diabetic rats [2] (setting [7]) it was 192 ± 28 mg glucose/dL; with diabetic rats [2] (setting [8]), 353 ± 37 mg glucose/dL; with diabetic rats [2] (setting [9]), 216 ± 23 mg glucose/dL; in the assay with diabetic rats [2] (setting [10]), 367 ± 47 mg glucose/dL. Also, the entries for the “Mean mg glucose/dL after Tmt” value in the assay on diabetic rats [2] (setting [11]) and in the assay on diabetic rats [2] (setting [12]) were 221 ± 12 mg glucose/dL and 314 ± 20 mg glucose/dL, respectively. Also, the “Mean mg glucose/dL before Tmt” value in the assay on diabetic rats [2] (setting [5]) was 372 ± 33 mg glucose/dL; with diabetic rats [2] (setting [6]) it was 373 ± 30 mg glucose/dL; with diabetic rats [2] (setting [7]) it was 422 ± 27 mg glucose/dL; in the assay on diabetic rats [2] (setting [8]) it was 411 ± 22 mg glucose/dL; in the assay with diabetic rats [2] (setting [9]) it was 342 ± 20 mg glucose/dL; in the assay on diabetic rats [2] (setting [10]) it was 417 ± 8 mg glucose/dL. Moreover, the “Mean mg glucose/dL before Tmt” value in the assay with diabetic rats [2] (setting [11]) was 314 ± 24 mg glucose/dL; with diabetic rats [2] (setting [12]), 359 ± 46 mg glucose/dL. Besides, the “Changes of mg glucose/dL” value amounted to 159 ± 45 mg glucose/dL in the assay on diabetic rats [2] (setting [5]); 115 ± 33 mg glucose/dL in the assay on diabetic rats [2] (setting [6]); 230 ± 14 mg glucose/dL in the assay on diabetic rats [2] (setting [7]); 58 ± 47 mg glucose/dL in the assay on diabetic rats [2] (setting [8]); 126 ± 34 mg glucose/dL in the assay with diabetic rats [2] (setting [9]); 50 ± 41 mg glucose/dL in the assay with diabetic rats [2] (setting [10]). In addition, the “Changes of mg glucose/dL” value in the assay on diabetic rats [2] (setting [11]) was 93 ± 32 mg glucose/dL; in the assay on diabetic rats [2] (setting [12]) it was 45 ± 16 mg glucose/dL. For the same compound, the “amount of C-Hispro intake for the most dramatic improvement of symptoms of diabetes” value in the assay with diabetic rats [2] (based on Tables 9 and 10) is “about 300 μg/kg/day”.

For the compound `N[C@@H](Cc1c[nH]cn1)C(=O)O` [L-Histidine, L-histidine], in the assay with diabetic rats [3] (0.5 mg/kg L-histidine), the “effect of L-histidine in the drinking water on diabetes” value is “improved diabetes”. In the assay on diabetic rats [3] (setting [13]), the “mg glu/dL Post-Treatment” value was found to be 304 ± 50 mg glu/dL and the “mg glu/dL Pre-Treatment” value is on record as 204 ± 22 mg glu/dL. In addition, the “mg glu/dL improvement” value in the assay with diabetic rats [3] (arachidonic acid 0 mg/kg/day, 0.5 mg/kg/day L-histidine, negative = increase) is -100 ± 62 mg glu/dL.

Consider `CCCCC/C=C\C/C=C\C/C=C\C/C=C\CCCC(=O)O` [arachidonic acid], for which, in the assay on diabetic rats [3] (L-histidine held constant), the “range of AA providing the greatest benefit” value is 10 to 12 mg/kg/day. In the assay on diabetic rats [3] (L-histidine held constant), the “range of AA that provided a therapeutic benefit” value fell in the range of 3 to 30 mg/kg/day. For the same compound, the “optimal amount of AA for improving the symptoms of diabetes in rats” value with diabetic rats [3] (L-histidine held constant (0.5 mg/kg/day)) is “about 10 mg/kg/day”. For the same compound, the “mg glu/dL Post-Treatment” value was 321 ± 34 mg glu/dL with diabetic rats [3] (setting [14]); 256 ± 25 mg glu/dL in the assay with diabetic rats [3] (setting [15]); 247 ± 32 mg glu/dL with diabetic rats [3] (setting [16]); 252 ± 29 mg glu/dL with diabetic rats [3] (setting [17]); 187 ± 15 mg glu/dL with diabetic rats [3] (setting [18]); 184 ± 16 mg glu/dL in the assay on diabetic rats [3] (setting [19]). Further, the entries for the “mg glu/dL Post-Treatment” value with diabetic rats [3] (setting [20]) and in the assay with diabetic rats [3] (setting [21]) were 241 ± 18 mg glu/dL and 301 ± 27 mg glu/dL, respectively. Also, the “mg glu/dL Pre-Treatment” value in the assay on diabetic rats [3] (setting [14]) was 263 ± 48 mg glu/dL; in the assay with diabetic rats [3] (setting [15]), 303 ± 23 mg glu/dL; with diabetic rats [3] (setting [16]) it was 308 ± 17 mg glu/dL; in the assay on diabetic rats [3] (setting [17]), 426 ± 56 mg glu/dL; in the assay with diabetic rats [3] (setting [18]), 393 ± 23 mg glu/dL; with diabetic rats [3] (setting [19]), 368 ± 25 mg glu/dL. In addition, the results for the “mg glu/dL Pre-Treatment” value in the assay on diabetic rats [3] (setting [20]) and in the assay on diabetic rats [3] (setting [21]) were 379 ± 25 mg glu/dL and 443 ± 52 mg glu/dL, respectively. Besides, the “mg glu/dL improvement” value was -58 ± 16 mg glu/dL with diabetic rats [3] (setting [14]); 47 ± 26 mg glu/dL with diabetic rats [3] (setting [15]); 61 ± 43 mg glu/dL with diabetic rats [3] (setting [16]); 174 ± 53 mg glu/dL in the assay with diabetic rats [3] (setting [17]); 206 ± 25 mg glu/dL with diabetic rats [3] (setting [18]); 184 ± 30 mg glu/dL in the assay on diabetic rats [3] (setting [19]). Besides, the “mg glu/dL improvement” value with diabetic rats [3] (setting [20]) is 138 ± 33 mg glu/dL; with diabetic rats [3] (setting [21]), 142 ± 66 mg glu/dL.

For `C[C@]12CC[C@H]3[C@@H](CCC4=CC(=O)CC[C@@]43C)[C@@H]1CC[C@@H]2O` [testosterone], in the assay with diabetic rats [4], the “benefit of including testosterone in the composition” value is on record as “no apparent benefit”.
